Reference: patent publication US20190169218A1, “AMPHIPATHIC COMPOUND HAVING NOVEL PENTA-SACCHARIDE HYDROPHILIC GROUP AND USE THEREOF” (Industry-University Cooperation Foundation Hanyang …, priority 2016, published 2019)

Legend:
[1] = biological target: T1, human β2 adrenergic receptor (β2AR) (Homo sapiens, UniProt P07550); test: negative staining electron microscopy (EM) of purified β2AR
T1 construct: Flag; made in house
Description: Electron microscopy (EM) analysis was performed on β2ARs solubilized in PSAs and PSEs.
Specifically, electron microscopy (EM) analysis was performed as follows. Samples were prepared using a conventional negative staining protocol (see Peisley, A. et al., G Protein-Coupled Receptors in Drug Discovery: Methods and Protocols, Methods in Molecular Biology, 1335, 29-38 (2015)). Briefly, 3 μL of β2ARs purified in DDM or the novel amphipathic compounds (PSA-C11, PSE-C11 and PSE-C13) was added into a glow-discharged carbon-coated grid by pipetting and stained with 1% (w/v) uranyl formate. Imaging was performed by operating a Morgagni 268 (D) transmission electron microscope (FEI Company) at 100 kV at room temperature. Images were recorded with an Orius SC200W CCD camera (Gatan Inc.) at a 30,416×magnification.

[2] = critical micelle concentration (CMC) by hydrophobic fluorescent staining with diphenylhexatriene (DPH); type: physicochemical
Summary of the method: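 CMC determined by hydrophobic fluorescent staining with diphenylhexatriene (DPH); micelle hydrodynamic radius measured separately by dynamic light scattering at 1.0 wt %, with DDM as reference detergent.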

[3] = hydrodynamic radius of micelles by dynamic light scattering (DLS); type: physicochemical; conditions: compound at 1.0 wt %
Summary of the method: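 Micelle hydrodynamic radius (Rh) was measured by dynamic light scattering with each amphiphile at 1.0 wt %.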

[4] = biological target: T1, human β2 adrenergic receptor (β2AR); test: bimane fluorescence spectrum of mBBr-β2AR solubilized in amphipathic compounds; conditions: 0.1 wt % compound
Description: The structural stability of monobromobimane-labeled β2ARs (mBBr-β2ARs) solubilized in PSAs and PSEs was evaluated in the presence of a high-affinity agonist BI (BI-167107).
Specifically, monobromobimane (mBBr)-labeled β2ARs (mainly labeled on Cys265) was used to measure changes in a fluorescence spectrum induced by a local structural change near transmembrane helix 6 (TM6) (see Yao, X. et al., Nat. Chem. Biol. 2006, 2, 417-422.). 0.5 μL of BI (agonist)-bound mBBr-β2ARs dissolved at a concentration of […] in 0.1 wt % DDM was diluted with 500 μL of a buffer solution containing 0.1 wt % of each of the novel amphipathic compounds (PSA-C11, PSE-C11 and PSE-C13). After incubation of the protein samples for 30 minutes, the spectrum of mBBr was measured and compared with the spectrum of mBBr-labeled receptors dissolved in 0.1 wt % DDM. The 370 nm excitation wavelength was used for bimane fluorescence, and the emission spectra were measured at 430 to 510 nm using a Spex FluoroMax-3 spectrometer (Jobin Yvon Inc.) at 0.5 nm s^−1 in 1-nm units, and the photon counting mode was set to a 4-nm emission bandwidth pass. mBBr-labeled β2ARs dissolved in DDM were used as a positive control group. Data is representative of three independent experiments.
The structural change and structural stability of mBBr-β2ARs by PSAs/PSEs and DDM according the presence or absence of a full agonist (isoproterenol, ISO) or the combination of ISO and a G-protein were measured. It is well known that a full agonist (e.g., BI) and the binding of a Gs-protein are simultaneously required for full activation of receptors (see Rasmussen, S. G. F. et al., Nature 2011, 469, 175-180.).
Specifically, G protein coupling experiments were performed using the following method. 0.5 μL of non-ligand mBBr-labeled receptors at a concentration of 50 μM was diluted with 500 μL of a buffer solution containing a 0.1 wt % amphipathic compound at room temperature for 15 minutes. After dilution, a dilution containing the receptors at a final concentration of 50 nM was obtained. 2 μM isoproterenol (ISO) was added to the diluted solution, and the solution was incubated for an additional 15 minutes. 250 nM Gs-protein was additionally added to the solution, and then the protein samples included in the solution were incubated at room temperature for an additional 20 minutes. The 370 nm excitation wavelength was used for bimane fluorescence, and the emission spectra were measured at 430 to 510 nm using a Spex FluoroMax-3 spectrometer (Jobin Yvon Inc.) at 0.5 nm s^−1 in 1-nm units, and the photon counting mode was set to a 4-nm emission bandwidth pass. The same experiment was repeated using 0.1 wt % DDM, which was used as a positive control. Data is representative of three independent experiments.

[5] = in the presence of agonist BI (BI-167107)
[6] = in the presence of full agonist isoproterenol (ISO)

T1 sequence (P07550 whole entry): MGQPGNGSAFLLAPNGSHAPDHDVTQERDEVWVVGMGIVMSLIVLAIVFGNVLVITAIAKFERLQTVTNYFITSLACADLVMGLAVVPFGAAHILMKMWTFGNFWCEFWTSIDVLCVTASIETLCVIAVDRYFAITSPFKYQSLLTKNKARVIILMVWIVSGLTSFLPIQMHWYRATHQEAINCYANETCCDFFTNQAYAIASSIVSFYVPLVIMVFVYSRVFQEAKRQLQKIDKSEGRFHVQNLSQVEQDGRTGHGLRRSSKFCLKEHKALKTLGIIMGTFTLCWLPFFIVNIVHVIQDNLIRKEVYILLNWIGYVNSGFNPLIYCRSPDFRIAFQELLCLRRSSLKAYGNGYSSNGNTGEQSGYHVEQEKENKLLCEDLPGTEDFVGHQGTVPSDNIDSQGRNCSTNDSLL

Compound	agglutinated proteins in negative staining EM images of β2AR [1]	CMC [2] [mM]	CMC (wt %) [2] [wt %]	Rh (nm), hydrodynamic radius of micelles [3] [nm]	bimane fluorescence spectrum of mBBr-β2AR [4, 5]	bimane fluorescence spectrum of mBBr-β2AR [4, 6]
CCCCCCCCCCCCO[C@@H]1O[C@H](CO)[C@@H](O[C@H]2O[C@H](CO)[C@@H](O)[C@H](O)[C@H]2O)[C@H](O)[C@H]1O [DDM, n-dodecyl-β-D-maltopyranoside, reference compound]	many agglutinated proteins were observed	~0.17	~0.0087	3.4 ± 0.03	–	–
CCCCCCCCCCCC(CCCCCCCCCCC)CO[C@@H]1OC(CO[C@@H]2OC(CO)[C@@H](O)C(O)C2O)[C@@H](O[C@@H]2OC(CO)[C@@H](O)C(O)C2O)C(O[C@@H]2OC(CO)[C@@H](O)C(O)C2O)C1O[C@@H]1OC(CO)[C@@H](O)C(O)C1O (stereo partly drawn) [PSA-C11]	the agglutinated proteins were hardly observed	~0.007	~0.0008	3.28 ± 0.03	very similar to that obtained from the receptors dissolved in DDM	spectra similar to the receptor solubilized by DDM
CCCCCCCCCCCOCC(COCCCCCCCCCCC)O[C@@H]1OC(CO[C@@H]2OC(CO)[C@@H](O)C(O)C2O)[C@@H](O[C@@H]2OC(CO)[C@@H](O)C(O)C2O)C(O[C@@H]2OC(CO)[C@@H](O)C(O)C2O)C1O[C@@H]1OC(CO)[C@@H](O)C(O)C1O (stereo partly drawn) [PSE-C11]	the agglutinated proteins were hardly observed	~0.004	~0.0005	3.46 ± 0.05	very similar to that obtained from the receptors dissolved in DDM	spectra similar to the receptor solubilized by DDM
CCCCCCCCCCCCCOCC(COCCCCCCCCCCCCC)O[C@@H]1OC(CO[C@@H]2OC(CO)[C@@H](O)C(O)C2O)[C@@H](O[C@@H]2OC(CO)[C@@H](O)C(O)C2O)C(O[C@@H]2OC(CO)[C@@H](O)C(O)C2O)C1O[C@@H]1OC(CO)[C@@H](O)C(O)C1O (stereo partly drawn) [PSE-C13]	the amount of the agglutinated proteins was small	~0.001	~0.0001	14.1 ± 0.24	somewhat different bimane fluorescence spectrum compared to the receptors dissolved in DDM	–
CCCCCCCCOCC(COCCCCCCCC)(COCCCCCCCC)CO[C@@H]1OC(CO[C@@H]2OC(CO)[C@@H](O)C(O)C2O)[C@@H](O[C@@H]2OC(CO)[C@@H](O)C(O)C2O)C(O[C@@H]2OC(CO)[C@@H](O)C(O)C2O)C1O[C@@H]1OC(CO)[C@@H](O)C(O)C1O (stereo partly drawn) [TPS-E8]	–	~0.007	~0.0009	43.8 ± 16.3	–	–
